Results: article PMC2845622, “An Expanded Self-Antigen Peptidome Is Carried by the Human Lymph As Compared to the Plasma” (PLoS ONE, 2010)
pIC50: −log10 of the molar value. Read-outs that look alike come from different tables or passages of the source. Ends that are not written are not given here.

Key:
[1] = molecular target: HLA-DR4 (HLA-DRA*0101,-DRB1*0401) (Homo sapiens, UniProt P01903+P01911, A100K/A169T/F76Y/I96L/K127E/L162R/M171V/N62H/P40V/Q125Y/R42H/S133A/S149N/S66Y/V115G/V209L/W38E); assay: Competition fluorescence polarization peptide binding assay, HLA-DR4 with HLA-DM
[2] = molecular target: HLA-DR1 (HLA-DRA*0101,-DRB1*0101) (Homo sapiens, UniProt P01903+P01911, A100R/D57E/F55L/F60I/F76Y/I96L/L162R/M171V/P40L/Q125E/R42F/V115G/Y59C); assay: Competition fluorescence polarization peptide binding assay, HLA-DR1; conditions: competition with Alexa488-HA peptide 25 nM, HLA-DR1 100 nM, 3 days at 37°C, citrate pH 5/5.5; mean of single fit to triplicate values
[3] = tested on: lymph node T cells of HLA-DR1 or HLA-DR4 transgenic mice; assay: T cell proliferation (thymidine incorporation) in lymph nodes from peptide immunized mice; type: cell-based, mouse; conditions: mice immunized with 100 µg peptide in complete Freund's adjuvant, lymph nodes 14 days later, 72 h culture with titrated peptide
Procedure: Finally we asked whether any of the tight-binding peptides, which also were conserved between mouse and human, could be recognized by peripheral T cells. HLA-DR1 or HLA-DR4 transgenic mice were immunized with 100 µg of several of the extracellular matrix peptides in complete Freund's adjuvant in the flanks and nape of the neck. Draining lymph nodes were collected 14 days later and reactive T cells analyzed by proliferation assay with thymidine incorporation.
HLA-DR1 and HLA-DR4 mice were immunized in the flanks and nape of the neck with 100 micrograms of peptide emulsion in Freund's adjuvant. Two weeks later popliteal and axillary lymph nodes were harvested and tested in proliferation assay. Briefly 6×10^5 cells were seeded in a 96 well plate with or without titrated amount of the immunizing peptide for 72 hours. Thymidine ([…]) was added 18 hours before cell harvesting. Cells were harvested on a Tomtec harvester (Model 94-3-468) and incorporated thymidine counted on a liquid scintillation counter (1450 Microbeta Wallac Trilux).

[4] = competition with Alexa488-HA peptide 25 nM, HLA-DR4 and HLA-DM 100 nM each, 1 mM DTT, 3 days at 37°C, citrate pH 5/5.5, mean of single fit to triplicate values, read-out: DR4 IC50

## MGPMGPRGPPGPA-NH2 [MGPMGPRGPpgpa]
[1]; [4]
  pIC50: < 4.00

## Ac-PGALLGAPPPLVPAP [pgaLLGAPPPLVpap]
[1]
  pIC50: < 4.00

## Ac-HQVSINNTAVMQRL [hqVSINNTAVMqrl]
[1]; [4]
  pIC50: 5.33
[2]
  pIC50: 4.38

## Ac-NGVVGPTGPVGAAGPA-NH2 [ngVVGPTGPVGaagpa]
[1]; [4]
  pIC50: < 4.00
[2]
  pIC50: 4.74

## Ac-PQGFQGNPGEPGE [pqgFQGNPGEPGe]
[1]; [4]
  pIC50: < 4.00
[2]
  pIC50: 6.10

## Ac-GALLGAPPPLVPAP [gaLLGAPPPLVpap]
[1]; [4]
  pIC50: 5.06
[2]
  pIC50: 4.97

## Ac-DPFRLQSTSQHN [dpFRLQsTsQHn]
[3]
  Proliferative response of draining lymph node T cells to immunizing peptide: significant proliferation index
[1]; [4]
  pIC50: 5.89

## NYAILRNLQP [nYAILRNLQP]
[1]; [4]
  pIC50: 4.25
[2]
  pIC50: 4.26

## Ac-EDTFAHLTPTPT [edtFAHLTPTPT]
[2]
  pIC50: 5.77

## Ac-SPWIDASTAIDA [spWIDASTAIDa]
[1]; [4]
  pIC50: 4.22

## MLQGTSSVLLLWG-NH2 [mLQGTsSVLLlwg]
[1]; [4]
  pIC50: 4.10
[2]
  pIC50: 4.20

## Ac-NGVVGPTGPVGAAGP-NH2 [ngvVGPTGPVGAagp]
[1]; [4]
  pIC50: < 4.00

## Ac-KNFASVQGVSLESG [knFASVQGVSLesg]
[2]
  pIC50: 6.38
